Assays:
[1] = system: pyocyanin (PCN) production in P. aeruginosa; assay type: cell-based, Pseudomonas aeruginosa
[2] = system: PA-I lectin/adhesin expression in P. aeruginosa PA27853 and PAO1
[3] = target: T1, outer membrane protein OprF (Pseudomonas aeruginosa, UniProt P13794); assay: Binding of IFN-γ to purified OprF; conditions: dose-dependent
T1 sequence (P13794 25-350): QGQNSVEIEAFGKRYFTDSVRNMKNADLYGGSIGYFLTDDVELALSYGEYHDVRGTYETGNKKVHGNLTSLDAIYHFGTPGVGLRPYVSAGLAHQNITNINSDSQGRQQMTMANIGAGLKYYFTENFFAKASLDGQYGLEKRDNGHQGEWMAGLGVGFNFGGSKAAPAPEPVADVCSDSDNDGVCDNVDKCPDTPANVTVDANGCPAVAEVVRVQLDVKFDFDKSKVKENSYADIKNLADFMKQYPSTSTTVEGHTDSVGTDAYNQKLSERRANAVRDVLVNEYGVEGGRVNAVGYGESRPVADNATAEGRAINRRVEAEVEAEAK

[4] = system: P. aeruginosa whole cells and membrane fractions; assay: ELISA / immunofluorescence binding of cytokines to P. aeruginosa cells and membrane fractions; design: species or system Pseudomonas aeruginosa; conditions: for binding to P. aeruginosa membrane fractions: PAO1 membranes, ELISA
Method: IFN-γ direct binding to a protein on the surface of P. aeruginosa, in the course of virulence activation, was also investigated. ELISA binding assays were performed by first coating microtiter plates with P. aeruginosa (strain PAO1), then adding recombinant human IFN-γ (rH IFN-γ), followed by biotin-labeled anti-IFN-γ antibody. […] In order to localize the binding site of IFN-γ to P. aeruginosa (PAO1), equal protein concentrations of membrane and cytosol fractions of P. aeruginosa were prepared and coated onto ELISA microtiter plates.

Caco-2 cell monolayers = assay: Barrier dysregulation of Caco-2 monolayers by PA27853 in the presence of IFN-γ; assay type: cell-based, Human; conditions: after five hours of incubation
Method: In addition, strains were exposed to apical media from Caco-2 cells basolaterally exposed to single and combinations of the various epithelial-derived cytokines. […] Media from Caco-2 cells exposed to various combinations of these cytokines had no effect on PA-I expression. […] Using both ELISA, immunofluorescence microscopy, and flow cytometry, the binding characteristics of IFNγ were determined for both whole bacteria and membrane fractions of P. aeruginosa. […] These effects were also observed with strain PAO1. […] It has been difficult to immunoprecipitate a significant quantity of this protein from PA27853, but it has been determined that this protein can also be immunoprecipitated from E. coli. Next, IFN-γ binding specificity, to whole bacterial cells, was determined, using reiterative binding studies in the presence of various gram-negative bacterial strains, including P. aeruginosa. […] Finally, in order to determine if PA-I was functionally expressed in […] in the presence IFN-γ, PA27853 was inoculated onto Caco-2 cell monolayers in the presence of IFN-γ and the effect on barrier dysregulating dynamics of PA27853 against this cell line were assessed to determine if IFN-γ shifted the dynamics. IFN-γ enhanced the barrier dysregulating effect of PA27853 against the intestinal epithelium after five hours of incubation by about 20%. […]

[5] = system: PA-I lectin/adhesin expression in P. aeruginosa 27853/PLL-EGFP
[6] = system: quorum sensing signaling system of P. aeruginosa PAO1; assay: Quorum sensing activation in PAO1 (rhlI Northern blot, C4-HSL in supernatants); assay type: cell-based, Pseudomonas aeruginosa
[7] = system: Human pulmonary microvascular endothelial cell; assay type: cell-based; conditions: for effect of agonist alone on endothelial cell barrier function (TER): HPMVEC
[8] = cited from earlier work
MDCK cells = assay type: cell-based
P. aeruginosa biofilm = assay type: cell-based, Pseudomonas aeruginosa
[9] = in vivo; cited from earlier work
[10] = cited from earlier work; remark: listed apart in the source
S1P3 receptor = assay: Tyrosine phosphorylation (transactivation) of the S1P3 receptor; assay type: cell-based, Human; conditions: pre-treatment

With `COC(=O)c1ccccc1N` [MA, methyl anthranilate] the “effect on U-50,488-enhanced PCN production” value [1] was “inhibited the ability of U-50,488 to enhance PCN production”.
For “IFN-γ: human recombinant interferon gamma”, the pyocyanin production [1] was “increased pyocyanin production”, the PA-I expression [2] was “induced PA-I expression” and the “PA-I expression, compound alone in media” value [2] was “induced a direct effect on PA-I expression”. For the same compound, the “PA-I mRNA and protein” value [2] was “increased”, the “PA-I protein expression, dose dependence” value [2] was “dose dependent, with the greatest increase seen with 100 ng/ml” and the “lecA (PA-I) mRNA by Northern blot” value [2] was “induced lecA mRNA”. The “response to express PA-I” value [2] was “induce a robust response”, the “binding to purified OprF” value [3] was “directly binds” and the “binding to whole bacterial cells” value ([4]; PA27853) was “high binding affinity”. For the same compound, the “ELISA binding to whole fixed cells” value ([4]; PAO1) was “avidly bound to whole fixed cells of P. aeruginosa in a dose-dependent manner”, the “bacterial cells that bound IFN-γ (immunofluorescent imaging)” value ([4]; PAO1) was 73%±3.2% and the “binding to P. aeruginosa membrane fractions” value [4] was “preferentially bound to membrane fractions”. For the same compound, the “enhancement of barrier dysregulating effect of PA27853” value (Caco-2 cell monolayers) was “about 20%”, the “PA-I expression (fluorescence)” value [5] was “significant increase in PA-1 expression” and the C4-HSL synthesis ([6]; 100 ng/ml IFN-γ) was “increased”. For the same compound, the rhlI gene transcription ([6]; Northern blot) was “induced rhl1 transcription”.
With TNF-α the “PA-I expression, compound alone in media” value [2] was “none of the other compounds alone had any effect” and the “binding to P. aeruginosa membrane fractions” value [4] was “No binding was observed”.
In the case of IL-10: human cytokine, the “binding to P. aeruginosa membrane fractions” value [4] is reported as “No binding was observed”.
For dynorphin, the PCN production [1] was “enhanced PCN production in a dose-dependent manner”.
In the case of `C[C@@H](NC(=O)[C@@H](N)Cc1ccc(O)cc1)C(=O)NCC(=O)N(C)[C@@H](Cc1ccccc1)C(=O)NCCO` [DAMGO, [D-Ala^2, N-MePhe^4, Gly^5-ol]], the “effect of agonist alone on endothelial cell barrier function (TER)” value [7] is reported as “induced endothelial cell barrier disruption in a dose-dependent manner”.
In the case of `Nc1ncnc2c1ncn2[C@@H]1O[C@H](COP(=O)(O)OP(=O)(O)O)[C@@H](O)[C@H]1O` [ADP], the PA-I expression [5] is reported as “no evident inducing effect”.
For `Nc1ncnc2c1ncn2[C@@H]1O[C@H](CO)[C@@H](O)[C@H]1O` [adenosine], the “PA-I expression, compound alone in media” value [2] was “none of the other compounds alone had any effect”, the PA-I expression [5] was “increased” and the “PA-I promoter activity (fluorescence)” value [5] was “enhanced fluorescence”. The “exposure time before PA-I promoter activity was observed” value [5] was 6 h.
For “EGF: human cytokine tested for membrane binding”, the “binding to P. aeruginosa membrane fractions” value [4] was “No binding was observed”.
In the case of `C[C@H]1CN(C[C@H](Cc2ccccc2)C(=O)NCC(=O)O)CCC1(C)c1cccc(O)c1` (single isomer, unassigned; (+)) [formula (II), (+)-Z-NHCH2 C(O)OH], the solubility in water [8] is listed as “low solubility in water except at low or high pH conditions”.
For `OC[C@H]1O[C@@H](n2cnc3c(O)ncnc32)[C@H](O)[C@@H]1O` [inosine], the “change in PA-I expression over time, magnitude versus adenosine” value [5] was “effect of inosine greater”, the “concentration inducing PA-I expression relative to adenosine” value [5] was 10 fold less than adenosine and the “onset of PA-I expression versus adenosine” value [5] was “at an earlier time point and at lower cell densities (OD) compared to adenosine”.
In the case of adenosine deaminase, the “PA-I expression after adenosine depletion of HIF-1-α-activated Caco-2 media” value ([5]; Caco-2) is reported as “even greater increase in PA-I expression”.
For `Oc1ccc2c3c1O[C@H]1c4[nH]c5c(c4C[C@@]4(O)[C@@H](C2)N(CC2CC2)CC[C@]314)C[C@@]1(O)[C@H]2Cc3ccc(O)c4c3[C@@]1(CCN2CC1CC1)[C@H]5O4` [NOR, nor-binaltorphimine], the “effect on U-50,488-enhanced PCN production” value [1] was “attenuates enhanced PCN production” and the “dose that completely inhibits U-50,488-enhanced PCN production” value ([1]; PAO1) was 200 µM.
For TGF-β, the “binding to P. aeruginosa membrane fractions” value [4] was “No binding was observed”.
For `Nc1ncnc2c1ncn2[C@@H]1O[C@H](COP(=O)(O)O)[C@@H](O)[C@H]1O` [AMP], the PA-I expression [5] was “no evident inducing effect”.
With `Nc1ncnc2c1ncn2[C@@H]1O[C@H](COP(=O)(O)OP(=O)(O)OP(=O)(O)O)[C@@H](O)[C@H]1O` [ATP] the PA-I expression [5] was “no evident inducing effect”.
With Thrombin the “effect of agonist alone on endothelial cell barrier function (TER)” value [7] was “induced a rapid transient decrease in endothelial cell barrier function”.
With IL-6: human cytokine the “PA-I expression, compound alone in media” value [2] was “none of the other compounds alone had any effect”.
In the case of `C[C@@H](O)C(=O)O` [D-lactate], the “PA-I promoter activity (fluorescence)” value [5] is reported as “had no effect on PA-I promoter activity”.
For `CC(=O)N[C@H]1C(O)O[C@H](CO)[C@H](O)[C@@H]1O` (some centres unmarked) [GalNac, N-acetylgalactoside], the “PA-I mRNA increase on dense adherence to Caco-2 cells” value ([2]; Caco-2) was “nearly completely abolished” and the “PA-I mRNA induced by Caco-2 cell membrane fractions” value ([2]; Caco-2) was “attenuated”.
In the case of `C=CCN1C[C@H](C)N([C@H](c2ccc(C(=O)N(CC)CC)cc2)c2cccc(O)c2)C[C@H]1C` [BW373U86], the “additional TEER decrease” value (MDCK cells) is reported as roughly 25%, the biofilm production (P. aeruginosa biofilm) is reported as ~180 % of PA27853 induction and the PA-I protein expression [2] is reported as “induced a response equal to C4-HSL”. For the same compound, the “response to express PA-I” value [2] was “induce a robust response” and the “PA-I expression judged by fluorescence of the GFP reporter strain” value [5] was “greatest effect on PA-I expression”.
For `C=CCN1CC[C@]23c4c5ccc(O)c4O[C@H]2C(=O)CC[C@@]3(O)[C@H]1C5` [naloxone], the “crossing of the blood-brain barrier” value [9] is given as “crosses the blood-brain barrier easily”, the “lipid solubility / polarity” value [10] is given as “fairly lipid-soluble” and the “effect on MS- and DAMGO-induced endothelial cell barrier disruption” value [7] is given as “blocked”. The “barrier protection with thrombin and LPS challenge” value ([7]; 0.1 μM) was “did not display the same endothelial cell barrier-protective effects as MNTX”, the “effect on morphine-induced PA-I lectin/adhesin expression” value [5] was “significantly attenuated” and the “effect on morphine- and DAMGO-induced S1P3 receptor transactivation” value (S1P3 receptor) was “blocked the effects of morphine and DAMGO”.
For `C[C@H](O)C(=O)O` [L-lactate], the “PA-I promoter activity (fluorescence)” value [5] was “had no effect on PA-I promoter activity”.
For IL-4: human cytokine, the “binding to P. aeruginosa membrane fractions” value [4] was “No binding was observed”.
For IL-8: human cytokine, the “PA-I expression, compound alone in media” value [2] was “none of the other compounds alone had any effect”.
For `CC(C)(C)n1nc(-c2ccc(Cl)cc2)c2c(N)ncnc21` [PP2], the “effect on S1P-mediated endothelial cell barrier enhancement” value ([7]; Src family kinase inhibition) was “did not affect S1P-mediated endothelial cell barrier enhancement” and the “effect on agonist-induced barrier disruption” value ([7]; Src family kinase inhibition) was “blocked agonist-induced barrier disruption”.
